ChEMBL document CHEMBL4024755, “Pharmacophore Hybridization To Discover Novel Topoisomerase II Poisons with Promising Antiproliferative Activity” (J Med Chem, 2018)
The source made the active and inactive calls. The rule behind the calls is not given here.

Experiments:
MCF7 = assay: Antiproliferative activity against human MCF7 cells after 72 hrs by MTT assay; format: functional, cell-based; conditions: MCF7, 72 h
[1] = biological target: T1, DNA topoisomerase 2-alpha (Homo sapiens, UniProt P11388); assay: Poison activity at human Topo2alpha expressed in baculovirus-infected insect cells using pBR322 as substrate assessed as concentration required to observe the same amount of topo2/DNA cleavage complex generated by etoposide at 20 uM after 6 minutes by ethidium bromide staining based agarose gel electrophoresis
T1 sequence (P11388 whole entry): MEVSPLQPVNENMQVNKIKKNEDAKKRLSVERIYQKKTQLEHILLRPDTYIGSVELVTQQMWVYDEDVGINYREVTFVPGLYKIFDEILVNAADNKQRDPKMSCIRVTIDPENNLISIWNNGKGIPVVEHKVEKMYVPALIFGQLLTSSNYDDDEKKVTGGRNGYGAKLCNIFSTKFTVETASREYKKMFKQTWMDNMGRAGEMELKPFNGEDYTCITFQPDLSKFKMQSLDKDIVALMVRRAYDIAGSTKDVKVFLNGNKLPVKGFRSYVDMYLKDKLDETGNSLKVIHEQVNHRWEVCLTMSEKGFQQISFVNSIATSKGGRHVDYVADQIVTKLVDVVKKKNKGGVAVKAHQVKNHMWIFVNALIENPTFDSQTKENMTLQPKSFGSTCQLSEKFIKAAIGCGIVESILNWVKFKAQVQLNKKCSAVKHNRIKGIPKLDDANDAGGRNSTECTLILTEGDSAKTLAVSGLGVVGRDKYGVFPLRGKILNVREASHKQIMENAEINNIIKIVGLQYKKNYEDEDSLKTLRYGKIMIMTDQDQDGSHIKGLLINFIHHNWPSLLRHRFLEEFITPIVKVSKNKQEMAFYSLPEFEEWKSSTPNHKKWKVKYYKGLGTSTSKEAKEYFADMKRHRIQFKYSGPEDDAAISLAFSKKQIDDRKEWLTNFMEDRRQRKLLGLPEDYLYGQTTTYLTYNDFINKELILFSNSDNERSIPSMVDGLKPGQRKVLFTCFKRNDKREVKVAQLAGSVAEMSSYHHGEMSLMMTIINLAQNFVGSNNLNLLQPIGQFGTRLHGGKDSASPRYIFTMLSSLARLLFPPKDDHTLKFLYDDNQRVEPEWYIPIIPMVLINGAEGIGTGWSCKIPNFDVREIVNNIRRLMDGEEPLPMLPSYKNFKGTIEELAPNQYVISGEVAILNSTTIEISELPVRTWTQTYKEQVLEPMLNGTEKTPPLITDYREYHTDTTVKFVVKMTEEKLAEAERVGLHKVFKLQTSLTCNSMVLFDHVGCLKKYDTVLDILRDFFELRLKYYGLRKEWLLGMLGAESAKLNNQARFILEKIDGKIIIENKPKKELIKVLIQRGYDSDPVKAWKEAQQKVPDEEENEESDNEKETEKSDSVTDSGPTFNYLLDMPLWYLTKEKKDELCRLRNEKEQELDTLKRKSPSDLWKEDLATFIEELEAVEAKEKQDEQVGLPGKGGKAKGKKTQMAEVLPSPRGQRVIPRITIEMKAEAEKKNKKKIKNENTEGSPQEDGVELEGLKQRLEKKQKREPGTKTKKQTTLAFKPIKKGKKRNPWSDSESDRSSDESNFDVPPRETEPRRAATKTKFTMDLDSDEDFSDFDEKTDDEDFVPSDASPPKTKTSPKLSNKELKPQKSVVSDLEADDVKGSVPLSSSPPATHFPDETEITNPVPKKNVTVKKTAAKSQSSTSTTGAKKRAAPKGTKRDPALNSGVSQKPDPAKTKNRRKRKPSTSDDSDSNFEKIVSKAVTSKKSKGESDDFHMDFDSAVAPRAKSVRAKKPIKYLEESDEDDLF

[2] = biological target: T1, DNA topoisomerase 2-alpha; assay: Inhibition of human topoisomerase 2alpha expressed in baculovirus-infected insect cells assessed as reduction in pBR322 supercoiled DNA relaxation after 60 mins by ethidium bromide staining based agarose gel electrophoresis
Bos taurus [3] = organism: Bos taurus; assay: Binding affinity to calf thymus DNA in absence of topo2 enzyme by circular dichroism titration analysis
DU-145 = assay: Antiproliferative activity against human DU145 cells after 72 hrs by MTT assay; format: functional, cell-based; conditions: DU-145, 72 h
Bos taurus [4] = organism: Bos taurus; assay: Binding affinity to calf thymus DNA at 50 uM by UV-spectrophotometric analysis
HeLa [5] = assay: Antiproliferative activity against human HeLa cells after 72 hrs by MTT assay; format: functional, cell-based
A549 = assay: Antiproliferative activity against human A549 cells after 72 hrs by MTT assay; format: functional, cell-based; conditions: A549, 72 h
HeLa [6] = assay: Inhibition of human of DNA topoisomerase 2 in human HeLa cells assessed as induction of H2AX phosphorylation at 10 uM after 90 mins by NuPAGE based electrophoresis; format: cell-based
[7] = biological target: T1, DNA topoisomerase 2-alpha; assay: Poison activity at human Topo2alpha expressed in baculovirus-infected insect cells using pBR322 as substrate assessed as topo2/DNA cleavage complex generation after 6 minutes by ethidium bromide staining based agarose gel electrophoresis

| SMILES | IC50 (MCF7) [µM] | Activity [1] [µM] | IC50 [2] [µM] | Activity (Bos taurus [3]) | IC50 (DU-145) [µM] | Activity (Bos taurus [4]) | IC50 (HeLa [5]) [µM] | IC50 (A549) [µM] | inhibition (HeLa [6]) | Activity [7] |
| --- | --- | --- | --- | --- | --- | --- | --- | --- | --- | --- |
| COc1cccc(NC(=O)c2c(O)n(-c3ccccc3)c(=S)n(-c3ccccc3)c2=O)c1 | 14 | 100 | 30 | inactive | 12.5 | inactive | 8.5 | 6.9 | – | – |
| COc1cc(NC(=O)c2c(O)n(-c3ccccc3)c(=S)n(-c3ccccc3)c2=O)cc(OC)c1O | 53.5 | 200 | 120 | inactive | 26.7 | inactive | 18.1 | 17.5 | – | – |
| COc1cc([C@@H]2c3cc4c(cc3[C@@H](O[C@@H]3O[C@@H]5CO[C@@H](C)O[C@H]5[C@H](O)[C@H]3O)[C@H]3COC(=O)[C@H]23)OCO4)cc(OC)c1O [ETOPOSIDE] | 10.5 | – | – | – | 1 | inactive | 2.4 | 1.3 | – | – |
| O=C(Nc1ccccc1)c1c(O)n(-c2ccccc2)c(=S)n(-c2ccccc2)c1=O | 13.6 | 200 | 5 | inactive | 16.8 | inactive | 10.8 | 9.2 | Active | – |
| O=C1NC(=S)NC(=O)C1C(=O)Nc1ccccc1 [MERBARONE] | 83.9 | – | 120 | – | 18.9 | inactive | 62.3 | 40 | – | inactive |
| O=C(Nc1cccc(O)c1)c1c(O)n(-c2ccccc2)c(=S)n(-c2ccccc2)c1=O | 94.2 | – | 200 | inactive | 49.6 | inactive | 39.1 | 59.4 | – | inactive |
| O=C(Nc1ccc(O)cc1)c1c(O)n(-c2ccccc2)c(=S)n(-c2ccccc2)c1=O | 66.1 | 200 | 150 | inactive | 42.5 | inactive | 42.9 | 37.1 | – | – |
